{"source": "patent US9655877B2", "about": "“Therapeutic methods for treating inflammation and immune system disorders” (priority 2009, dated 2017)", "key": {"[1]": {"system": "MAP kinases (p38, JNK, ERK 1/2)", "test": "Phosphorylation of MAPKs in LPS-stimulated BV-2 cells, Western blot", "assay_type": "cell-based, murine", "conditions": "50 μg/ml pretreatment 1 h, 100 ng/ml LPS 30 min", "experimental": "BV-2 cells (2×10^5 cells/ml) were pretreated with either 0.05% DMSO or 50 μg/ml senkyunolide A for 1 h, followed by treatment with 100 ng/ml LPS for another 30 min. (A) Cytoplasmic proteins were extracted and analyzed by Western Blot using antibodies specific for phospho-p38, phospho-JNK, phospho-ERK 1/2 and actin. (B) Nuclear proteins were extracted and analyzed by Western Blot against NF-kB p65 and lamin B antibodies. 10^5 cells/ml BV-2 cells were first pretreated with senkyunolide A for 1 h. After induction by 100 ng/ml LPS for 30 min, the culture medium was discarded. Cytoplasmic proteins and nuclear proteins were extracted separately by buffer A and buffer C as described in our previous report^28. The cell lysates were separated by 10% SDS-polyacrylamide gel electrophoresis and transferred to a nitrocellulose membrane (Schleicher & Schuell, Germany). The cell lysates were incubated with specific antibodies (phospho-MAP kinases, Actin, NF-kB p65 and Lamin B) overnight. After three washes, the membranes were incubated with the corresponding secondary antibodies. The bands were detected using the Enhanced Chemiluminescence System (GE Healthcare, Piscataway, N.J., USA) according to the manufacturer's instructions. […] Briefly, the effect of Sen A on mitogen-activated protein kinases (MAPKs) in the cell signaling cascade was investigated. […]"}, "TNF-α mRNA": {"system": "TNF-α mRNA", "test": "TNF-α mRNA stability assay (actinomycin D) in BV-2 cells", "assay_type": "cell-based, murine", "conditions": "compound 1 hour, LPS 2 hours, then 1 μg/ml actinomycin", "experimental": "10^5 BV-2 cells were first stimulated by 100 ng/ml LPS. After 2 h of LPS treatment, transcription inhibitor actinomycin D (Act D) at a concentration of 1 ug/ml was added to stop the mRNA synthesis. Total RNA was harvested at indicated time points after actinomycin D treatment (post-Act D). The level of TNF-α mRNA was measured by real-time quantitative RT-PCR. In addition, the effect of senkyunolide A on TNF-α mRNA stability is evaluated. Specifically, 10^5 cells/ml BV-2 cells are seeded in 24-well plates (0.5 ml in each well). Cells are treated with Sen A at various concentrations for 1 hour prior to the addition of LPS for another 2 hours, and further incubated with 1 μg/ml actinomycin for various time periods. Total RNA of the treated samples is isolated and subjected to real-time RT-PCR."}, "Neuro-2a cells [2]": {"system": "Neuro-2a cells", "test": "Neuro-2a cells treated with compound alone in the culture media", "assay_type": "cell-based, murine", "conditions": "compound alone in the culture media (data not shown)", "description": "Specifically, a significant reduction in cell death, to less than 15% and 25%, respectively, was observed."}, "[3]": {"system": "TNF-α production in human blood macrophages", "test": "LPS-induced TNF-α production in human blood macrophages (PBMac), ELISA", "assay_type": "cell-based", "conditions": "25 or 50 μg/ml for 24 hours, then 1 ng/ml LPS for 24 hours", "experimental": "To measure the TNF-α level in cell culture supernatants, BV-2 cells were seeded at 1×10^5 cells/ml in the volume of 0.5 ml in 24-well culture plates. They were co-treated with or without 100 ng/ml LPS in the absence or presence of indicated concentrations of bioactive compounds of LCX for 18 h. In addition, PBMac cells were seeded at 1×10^6 cells/ml in the volume of 0.5 ml in 24-well plates. After incubation, the supernatants were collected and TNF-α levels were determined by ELISA according to the manufacturer's instructions (R&D Systems). […] To study the effect of Sen A and Z-Lig at various concentrations on TNF-α production, 1×10^6 cells/ml (FIG. 6) PBMac cells are seeded in 24-well plates (0.5 ml in each well). Cells are treated with 25 μg/ml or 50 μg/ml Sen A, Z-Lig, or DMSO for 24 hours prior to the addition of 1 ng/ml LPS, and further incubated for another 24 hours. The culture supernatants are collected and the level of secreted TNF-α is measured by ELISA according to the manufacturer's instructions (R&D Systems, Minneapolis, Minn.)."}, "Neuro-2a cells [4]": {"system": "Neuro-2a cells", "test": "Conditioned culture medium transfer model (LPS-treated BV-2 supernatant on Neuro-2a), MTT assay", "assay_type": "cell-based, murine", "conditions": "supernatant of BV-2 cells treated with 100 ng/ml LPS and 50 μg/ml compound 18 h, on Neuro-2a 48 h; LPS only more than 40%", "experimental": "BV-2 cells (3×10^5 cells/ml) were first treated with 100 ng/ml LPS for 18 h, in the presence of either 0.05% DMSO or 50 μg/ml senkyunolide A or Z-ligustilide. After centrifugation, the supernatants from BV-2 cells were transferred to Neuro-2a cells ([…]) for 48 h. Viability of Neuro-2a cells was measured using MTT assays. Results are shown as mean SD from three independent experiments. *p<0.05 compared with DMSO+LPS.\nBV-2 cells were seeded at 3×10^5 cells/ml in 12-well culture plates (1 ml in each well). They were co-treated with or without 100 ng/ml LPS, in the presence of 0.05% DMSO, 50 μg/ml senkyunolide A, or 50 μg/ml Z-ligustilide, for 18 h. The supernatants were then collected and centrifuged at 13,200 rpm for 3 min. The resulting supernatants were then transferred to Neuro-2a cells (1×10^5 cells/ml in 24-well culture plates), which were incubated for another 48 h. Cell viability of Neuro-2a cells was measured by MTT assay.\nBriefly, to investigate the physiological significance of Sen A and Z-Lig, a conditioned culture medium transfer model, commonly used for studying neuronal cell death induced by microglial activation, was adopted. After BV-2 cells were challenged with LPS, the supernatants were collected and centrifuged. The conditioned culture media were then transferred to Neuro-2a cell cultures."}}, "data": [{"smiles": "CCCC[C@H]1OC(=O)C2=C1CCC=C2", "note": "[senkyunolide A]", "values": [{"measurement": "effect on levels of phosphorylation of MAPKs (p38, JNK, ERK 1/2)", "setting": "[1]", "result": "did not exert any effect"}, {"measurement": "effect on TNF-α mRNA stability", "setting": "TNF-α mRNA", "result": "destabilizes TNF-α mRNA"}, {"measurement": "reduction of TNF-α mRNA half life", "setting": "TNF-α mRNA", "result": 43, "unit": "%"}, {"measurement": "cell death with compound alone", "setting": "Neuro-2a cells [2]", "result": "did not show cell death"}, {"measurement": "effect on endotoxin-induced TNF-α production", "setting": "[3]", "result": "suppress endotoxin-induced TNF-α production in a dose-dependent manner"}, {"measurement": "cell death of Neuro-2a cells", "setting": "Neuro-2a cells [4]", "result": "less than 15%"}]}]}
